Measurements: PMC5994920 (European journal of medicinal chemistry, 2017)

Experiments:
[1] = test system: acetylated histone H3, acetylated histone H4, procaspase-3, cleaved caspase-3 and cleaved PARP; test: Western blot analysis in HL60 cells; type: cell-based, human; settings: 48 h treatment
[2] = test system: U937 human tumor xenografts; test: In vivo antitumor assay, U937 xenograft model; settings: for Body weight loss compared with the control group (toxicity): oral, MS275 50 mg/kg/day, 11a 100 mg/kg/day
[3] = test system: HCT116 human tumor xenografts; test: In vivo antitumor assay, HCT116 xenograft model; settings: oral, 11a 100 mg/kg, SAHA 100 mg/kg, MS275 50 mg/kg
[4] = Intracellular fluid concentration; type: in vitro ADME; settings: preliminary results, data not shown
[5] = Lip-water partition coefficient; type: physicochemical; settings: compound concentration in n-octyl alcohol 5 mM

| Structure (SMILES) | Level of acetylated histone H3 and acetylated histone H4 (western blot) [1] | Levels of procaspase-3, cleaved caspase-3 and cleaved PARP (western blot) [1] | Body weight loss compared with the control group (toxicity) [2] | Body weight loss compared with the control group [3] | Body weight loss ([2]; first experiment, 100 mg/kg/day oral, three days later) | Intracellular fluid concentration, times lower than 11a [4] | Detection in water phase in LogP test (water solubility) [5] |
| --- | --- | --- | --- | --- | --- | --- | --- |
| COc1ccc(C(=O)N[C@@H](Cc2c[nH]c3ccccc23)C(=O)NCc2ccc(C(=O)Nc3ccccc3N)cc2)cc1 [Compound 11a, (S)-4-((3-(1H-indol-3-yl)-2-(4-methoxybenzamido)propanamido)methyl)-N-(2-aminophenyl)benzamide] | markedly increase | dramatically reduced the level of procaspase-3 and increased the level of cleaved caspased-3 and cleaved PARP | This toxicity didn’t appear | – | – | – | – |
| Nc1ccccc1NC(=O)c1ccc(CNC(=O)OCc2cccnc2)cc1 [MS275] | – | dramatically reduced the level of procaspase-3 and increased the level of cleaved caspased-3 and cleaved PARP | obvious body weight loss | serious body weight loss was observed | serious body weight loss | – | – |
| COc1ccc(C(=O)N[C@@H](Cc2c[nH]c3ccccc23)C(=O)NCc2ccc(C(=O)Nc3cc(-c4ccccc4)ccc3N)cc2)cc1 [Compound 56c, (S)-4-((3-(1H-indol-3-yl)-2-(4-methoxybenzamido)propanamido)methyl)-N-(4-amino-[1,1’-biphenyl]-3-yl)benzamide] | much less effects | could be hardly affected | – | – | – | more than 10 times | could hardly detect 56c in water phase |
